Reference: patent US12077503B2, “Substituted cyclic amides and their use as herbicides” (FMC CORPORATION, priority 2015, dated 2024)

Columns and labels:
Type in all cases: in vivo
[1] = test system: redroot pigweed (Amaranthus retroflexus); experiment: Test G Post-Emergence Protocol; details: Amaranthus retroflexus, post-emergence, 312 h; for pest or weed control at 15.625 g/ha: 15.625 g ai/ha, evaluated after 13 days (100=total damage to plant; 0=no damage to plant), read-out: Pigweed, Redroot damage rating; for pest or weed control at 62.5 g/ha: 62.5 g ai/ha, read-out: Pigweed, Redroot damage rating (100=total damage to plant; 0=no damage to plant); for pest or weed control at 62.5 g/ha / pest or weed control at 250 g/ha: evaluated after 13 days; for pest or weed control at 250 g/ha: 250 g ai/ha, read-out: damage to plant, Pigweed, Redroot (100=total damage to plant; 0=no damage to plant)
Procedure, shortened: (§1)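 Damage was rated 13 days after treatment from 0 (none) to 100 (plant killed). Compound was applied as a spray at 15.625, 62.5 or 250 g/ha in 50:50 acetone/water containing 0.5% Tween 20, onto 8-day-old potted plants kept in a glasshouse (24/16 °C, 14 h light, 65% humidity).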

corn (Zea mays) [2] = experiment: Test G Post-Emergence Protocol; details: Zea mays, post-emergence, 312 h; for plant injury at 15.625 g/ha: 15.625 g ai/ha, evaluated after 13 days (100=total damage to plant; 0=no damage to plant), read-out: Corn damage rating; for plant injury at 62.5 g/ha: 62.5 g ai/ha, read-out: Corn damage rating (100=total damage to plant; 0=no damage to plant); for plant injury at 62.5 g/ha / plant injury at 250 g/ha: evaluated after 13 days; for plant injury at 250 g/ha: 250 g ai/ha, read-out: damage to plant, Corn (100=total damage to plant; 0=no damage to plant)
Procedure, shortened: as §1

[3] = test system: giant foxtail (Setaria faberi); experiment: Test G Post-Emergence Protocol; details: Setaria faberi, post-emergence, 312 h; for pest or weed control at 15.625 g/ha: 15.625 g ai/ha, evaluated after 13 days (100=total damage to plant; 0=no damage to plant), read-out: Foxtail, Giant damage rating; for pest or weed control at 62.5 g/ha: 62.5 g ai/ha, read-out: Foxtail, Giant damage rating (100=total damage to plant; 0=no damage to plant); for pest or weed control at 62.5 g/ha / pest or weed control at 250 g/ha: evaluated after 13 days; for pest or weed control at 250 g/ha: 250 g ai/ha, read-out: damage to plant, Foxtail, Giant (100=total damage to plant; 0=no damage to plant)
Procedure, shortened: as §1

[4] = test system: barnyardgrass (Echinochloa crus-galli); experiment: Test G Post-Emergence Protocol; details: Echinochloa crus-galli, post-emergence, 312 h; for pest or weed control at 15.625 g/ha: 15.625 g ai/ha, evaluated after 13 days (100=total damage to plant; 0=no damage to plant), read-out: Barnyardgrass damage rating; for pest or weed control at 62.5 g/ha: 62.5 g ai/ha, read-out: Barnyardgrass damage rating (100=total damage to plant; 0=no damage to plant); for pest or weed control at 62.5 g/ha / pest or weed control at 250 g/ha: evaluated after 13 days; for pest or weed control at 250 g/ha: 250 g ai/ha, read-out: damage to plant, Barnyardgrass (100=total damage to plant; 0=no damage to plant)
Procedure, shortened: as §1

[5] = test system: velvetleaf (Abutilon theophrasti); experiment: Test G Post-Emergence Protocol; details: Abutilon theophrasti, post-emergence, 312 h; for pest or weed control at 15.625 g/ha: 15.625 g ai/ha, evaluated after 13 days (100=total damage to plant; 0=no damage to plant), read-out: Velvetleaf damage rating; for pest or weed control at 62.5 g/ha: 62.5 g ai/ha, read-out: Velvetleaf damage rating (100=total damage to plant; 0=no damage to plant); for pest or weed control at 62.5 g/ha / pest or weed control at 250 g/ha: evaluated after 13 days; for pest or weed control at 250 g/ha: 250 g ai/ha, read-out: damage to plant, Velvetleaf (100=total damage to plant; 0=no damage to plant)
Procedure, shortened: as §1

[6] = test system: ivy-leaved morning glory (Ipomoea hederacea); experiment: Test G Post-Emergence Protocol; details: Ipomoea, post-emergence, 312 h; for pest or weed control at 15.625 g/ha: 15.625 g ai/ha, evaluated after 13 days (100=total damage to plant; 0=no damage to plant), read-out: Morningglory, Ivy-leaved damage rating; for pest or weed control at 62.5 g/ha: 62.5 g ai/ha, read-out: Morningglory, Ivy-leaved damage rating (100=total damage to plant; 0=no damage to plant); for pest or weed control at 62.5 g/ha / pest or weed control at 250 g/ha: evaluated after 13 days; for pest or weed control at 250 g/ha: 250 g ai/ha, read-out: damage to plant, Morningglory, Ivy-leaved (100=total damage to plant; 0=no damage to plant)
Procedure, shortened: as §1

[7] = test system: redroot pigweed (Amaranthus retroflexus); experiment: Test G Pre-Emergence Protocol; details: Amaranthus retroflexus, pre-emergence, 312 h, evaluated after 13 days; for pest or weed control at 15.625 g/ha: 15.625 g ai/ha; for pest or weed control at 15.625 g/ha / pest or weed control at 250 g/ha: read-out: Pigweed, Redroot damage rating (100=total damage to plant; 0=no damage to plant); for pest or weed control at 62.5 g/ha: 62.5 g ai/ha, 100=total damage to plant, 0=no damage to plant, read-out: plant damage rating, Pigweed, Redroot; for pest or weed control at 250 g/ha: 250 g ai/ha
Procedure, shortened: (§2)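 Visual injury (0–100) at day 13 after a single pre-emergence spray. Rates: 15.625, 62.5, 250 g/ha in acetone–water 50:50 with 0.5% Tween 20. Growth conditions: 24/16° C, 14 h light, 65% humidity.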

corn (Zea mays) [8] = experiment: Test G Pre-Emergence Protocol; details: Zea mays, pre-emergence, 312 h, evaluated after 13 days; for plant injury at 15.625 g/ha: 15.625 g ai/ha; for plant injury at 15.625 g/ha / plant injury at 250 g/ha: read-out: Corn damage rating (100=total damage to plant; 0=no damage to plant); for plant injury at 62.5 g/ha: 62.5 g ai/ha, 100=total damage to plant, 0=no damage to plant, read-out: plant damage rating, Corn; for plant injury at 250 g/ha: 250 g ai/ha
Procedure, shortened: as §2

[9] = test system: giant foxtail (Setaria faberi); experiment: Test G Pre-Emergence Protocol; details: Setaria faberi, pre-emergence, 312 h, evaluated after 13 days; for pest or weed control at 15.625 g/ha: 15.625 g ai/ha; for pest or weed control at 15.625 g/ha / pest or weed control at 250 g/ha: read-out: Foxtail, Giant damage rating (100=total damage to plant; 0=no damage to plant); for pest or weed control at 62.5 g/ha: 62.5 g ai/ha, 100=total damage to plant, 0=no damage to plant, read-out: plant damage rating, Foxtail, Giant; for pest or weed control at 250 g/ha: 250 g ai/ha
Procedure, shortened: as §2

[10] = test system: barnyardgrass (Echinochloa crus-galli); experiment: Test G Pre-Emergence Protocol; details: Echinochloa crus-galli, pre-emergence, 312 h, evaluated after 13 days; for pest or weed control at 15.625 g/ha: 15.625 g ai/ha, read-out: Barnyard grass damage rating (100=total damage to plant; 0=no damage to plant); for pest or weed control at 62.5 g/ha: 62.5 g ai/ha, 100=total damage to plant, 0=no damage to plant, read-out: plant damage rating, Barnyardgrass; for pest or weed control at 250 g/ha: 250 g ai/ha, read-out: Barnyardgrass damage rating (100=total damage to plant; 0=no damage to plant)
Procedure, shortened: as §2

[11] = test system: velvetleaf (Abutilon theophrasti); experiment: Test G Pre-Emergence Protocol; details: Abutilon theophrasti, pre-emergence, 312 h, evaluated after 13 days; for pest or weed control at 15.625 g/ha: 15.625 g ai/ha; for pest or weed control at 15.625 g/ha / pest or weed control at 250 g/ha: read-out: Velvetleaf damage rating (100=total damage to plant; 0=no damage to plant); for pest or weed control at 62.5 g/ha: 62.5 g ai/ha, 100=total damage to plant, 0=no damage to plant, read-out: plant damage rating, Velvetleaf; for pest or weed control at 250 g/ha: 250 g ai/ha
Procedure, shortened: as §2

[12] = test system: ivy-leaved morning glory (Ipomoea hederacea); experiment: Test G Pre-Emergence Protocol; details: Ipomoea, pre-emergence, 312 h, evaluated after 13 days; for pest or weed control at 62.5 g/ha: 62.5 g ai/ha, 100=total damage to plant, 0=no damage to plant, read-out: plant damage rating, Morningglory, Ivy-leaved; for pest or weed control at 250 g/ha: 250 g ai/ha, read-out: Morningglory, Ivy-leaved damage rating (100=total damage to plant; 0=no damage to plant)
Procedure, shortened: as §2

SMILES | pest or weed control at 15.625 g/ha [1] | pest or weed control at 62.5 g/ha [1] | pest or weed control at 250 g/ha [1] | plant injury at 15.625 g/ha (corn (Zea mays) [2]) | plant injury at 62.5 g/ha (corn (Zea mays) [2]) | plant injury at 250 g/ha (corn (Zea mays) [2]) | pest or weed control at 15.625 g/ha [3] | pest or weed control at 62.5 g/ha [3] | pest or weed control at 250 g/ha [3] | pest or weed control at 15.625 g/ha [4] | pest or weed control at 62.5 g/ha [4] | pest or weed control at 250 g/ha [4] | pest or weed control at 15.625 g/ha [5] | pest or weed control at 62.5 g/ha [5] | pest or weed control at 250 g/ha [5] | pest or weed control at 15.625 g/ha [6] | pest or weed control at 62.5 g/ha [6] | pest or weed control at 250 g/ha [6] | pest or weed control at 15.625 g/ha [7] | pest or weed control at 62.5 g/ha [7] | further results
CN1C[C@@H](c2ccc(C(F)(F)F)cc2)[C@H](C(=O)Nc2[nH]ncc2C#N)C1=O (racemic) [Compound 1551] | 0% | 0% | 0% | 0% | 0% | 10% | 0% | 0% | 0% | 0% | 0% | 0% | 0% | 0% | 0% | 0% | 0% | 0% | 0% | 0% | pest or weed control at 250 g/ha [7]: 0%; plant injury at 15.625 g/ha (corn (Zea mays) [8]): 0%; plant injury at 62.5 g/ha (corn (Zea mays) [8]): 0%; plant injury at 250 g/ha (corn (Zea mays) [8]): 0%; pest or weed control at 15.625 g/ha [9]: 0%; pest or weed control at 62.5 g/ha [9]: 0%; pest or weed control at 250 g/ha [9]: 0%; pest or weed control at 15.625 g/ha [10]: 0%; pest or weed control at 62.5 g/ha [10]: 0%; pest or weed control at 250 g/ha [10]: 0%; pest or weed control at 15.625 g/ha [11]: 0%; pest or weed control at 62.5 g/ha [11]: 0%; pest or weed control at 250 g/ha [11]: 0%; pest or weed control at 15.625 g/ha ([12]; 15.625 g ai/ha, read-out: Morning-glory, Ivy-leaved damage rating (100=total damage to plant; 0=no damage to plant)): 0%; pest or weed control at 62.5 g/ha [12]: 0%; pest or weed control at 250 g/ha [12]: 0%
CN1C[C@@H](c2ccc(C(F)(F)F)cc2)[C@H](C(=O)Nc2ccc(F)nc2)C1=O (racemic) [Compound 1555] | 0% | 0% | 20% | 0% | 10% | 0% | 0% | 0% | 50% | 0% | 0% | 40% | 0% | 0% | 10% | 0% | 10% | 50% | 40% | 30% | pest or weed control at 250 g/ha [7]: 70%; plant injury at 15.625 g/ha (corn (Zea mays) [8]): 0%; plant injury at 62.5 g/ha (corn (Zea mays) [8]): 0%; plant injury at 250 g/ha (corn (Zea mays) [8]): 20%; pest or weed control at 15.625 g/ha [9]: 0%; pest or weed control at 62.5 g/ha [9]: 30%; pest or weed control at 250 g/ha [9]: 70%; pest or weed control at 15.625 g/ha [10]: 0%; pest or weed control at 62.5 g/ha [10]: 20%; pest or weed control at 250 g/ha [10]: 70%; pest or weed control at 15.625 g/ha [11]: 0%; pest or weed control at 62.5 g/ha [11]: 0%; pest or weed control at 250 g/ha [11]: 0%; pest or weed control at 62.5 g/ha [12]: 0%; pest or weed control at 250 g/ha [12]: 0%
